In assay [1] the test system is KMS11 (human myeloma cell line). The assay is described as follows: Cell proliferation assay (CellTiter-Glo), KMS11. The class given is cell-based. Conditions: Homo sapiens, KMS-11. A digest of the protocol: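 KMS11 cells in IMDM with 10% FBS and sodium pyruvate, seeded at 2000 cells/well on assay day. Compound added at 2× to equal volume of cells, incubated 3 days at 37° C. Viability read by CellTiter-Glo luminescence; EC50 derived.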
On the technique in general: ATP-based viability assays read luminescence as a measure of living cells.

A further assay concerns the target T1, FLT3D835Y kinase (Homo sapiens, UniProt P36888, D835Y).
T1 sequence (P36888 27-993 D835Y): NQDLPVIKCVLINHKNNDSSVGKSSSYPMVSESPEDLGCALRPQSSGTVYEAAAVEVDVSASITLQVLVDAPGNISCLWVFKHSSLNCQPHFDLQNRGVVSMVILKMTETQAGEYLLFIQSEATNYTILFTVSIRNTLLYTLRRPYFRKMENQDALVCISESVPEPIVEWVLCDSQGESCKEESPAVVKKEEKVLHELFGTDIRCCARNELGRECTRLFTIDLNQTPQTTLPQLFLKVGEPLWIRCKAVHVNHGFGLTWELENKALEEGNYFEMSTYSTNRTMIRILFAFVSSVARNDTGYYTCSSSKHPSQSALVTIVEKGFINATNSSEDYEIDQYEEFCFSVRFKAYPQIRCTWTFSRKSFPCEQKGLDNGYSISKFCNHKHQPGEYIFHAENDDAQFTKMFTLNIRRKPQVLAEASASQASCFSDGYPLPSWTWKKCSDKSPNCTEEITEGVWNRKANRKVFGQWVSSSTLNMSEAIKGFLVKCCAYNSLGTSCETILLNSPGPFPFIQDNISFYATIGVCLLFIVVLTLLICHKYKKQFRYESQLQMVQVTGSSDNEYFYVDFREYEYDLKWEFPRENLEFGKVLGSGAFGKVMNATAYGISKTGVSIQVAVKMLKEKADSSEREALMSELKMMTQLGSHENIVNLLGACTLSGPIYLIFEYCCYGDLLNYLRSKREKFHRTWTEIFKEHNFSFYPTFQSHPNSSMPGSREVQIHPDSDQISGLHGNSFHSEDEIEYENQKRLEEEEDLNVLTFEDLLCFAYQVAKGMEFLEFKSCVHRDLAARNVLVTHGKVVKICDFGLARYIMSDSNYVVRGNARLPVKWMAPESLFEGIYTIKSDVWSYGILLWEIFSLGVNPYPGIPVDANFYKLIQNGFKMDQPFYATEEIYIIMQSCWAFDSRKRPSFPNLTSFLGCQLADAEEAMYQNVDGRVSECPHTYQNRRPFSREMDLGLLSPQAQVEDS
The assay is described as follows: FLT3D835Y kinase inhibition assay (LanthaScreen TR-FRET). The class given is biochemical. Conditions: read-out: FLT3 IC50. The procedure:
FLT3D835Y Kinase Inhibition Assay
LanthaScreen™ is the detection of Time-Resolved Fluorescence Resonance Energy Transfer (TR-FRET) using lanthanide chelates to measure interactions between various binding partners. The application of TR-FRET to assay kinase activity was first described by Mathis (1995). A TR-FRET assay was used to measure FLT3D835Y kinase inhibitory activity. The assay panel was run on a Biomek FX liquid handling workstations. To the assay plates containing […] compound or control solutions, 4.5 μL of buffer A (50 mM TRIS-HCl pH 7.4, 2 mM DTT, 0.02% Tween 20, 0.02 mM Na3VO4, H2O nanpure) including a generic concentration of ATP (2 μM f.c.) was added per well, followed by […] of buffer B (4 uM ATP in Buffer A) including a generic concentration of polyEAY (50 nM f.c.), FLT3D835Y kinase, and divalent cations. Final concentration of kinase and cations were: [FLT3D835Y kinase]=5.7 nM, [Mg]=3 mM, [Mn]=3 mM. After 1 hour of incubation the kinase reactions were stopped by the addition of 4.5 μL of stop solution D (50 mM EDTA, 20 mM TRIS-HCl pH 7.4, 0.04% NP-40) immediately followed by 4.5 μL of buffer A (50 mM TRIS-HCl pH 7.4, 2 mM DTT, 0.02% Tween 20, 0.02 mM Na3VO4, H2O nanpure) including the Tb-labeled P-20 antibody to give a total detection volume of […]. After an incubation time of 45 min in the dark, the plates were transferred into the Pherastar fluorescence reader for counting. The effect of compound on the enzymatic activity was obtained from the linear progress curves and determined from one reading (end point measurement).
(In TR-FRET formats the signal depends on donor and acceptor labels being close together.)

A further assay concerns the target PIM2 (Homo sapiens, UniProt Q9P1W9). In words: Pim 2 AlphaScreen assay (high ATP). Type of assay: biochemical. The note with it: read-out: Pim2 IC50. A digest of the protocol:
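This is a bead-based AlphaScreen run at high ATP (11-125× Km) with biotin-Bad peptide (100 nM in the substrate mix), in 50 mM Hepes pH 7.5, 5 mM MgCl2, 0.05% BSA, 0.01% Tween-20, 1 mM DTT and 2.5% DMSO final. After ~2 h the reaction was stopped with EDTA. Phospho-peptide was detected overnight with anti-phospho Ser/Thr antibody on Protein A and streptavidin beads, giving IC50.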
(Bead proximity is the source of the signal in Alpha formats.)

Where two headings read alike, the source gives them in different places.

As a reminder, the EC50 is the concentration giving half of the maximal effect. As a reminder, the IC50 is the concentration needed to halve the response being measured.

Chain of PIM2 (Q9P1W9 whole entry): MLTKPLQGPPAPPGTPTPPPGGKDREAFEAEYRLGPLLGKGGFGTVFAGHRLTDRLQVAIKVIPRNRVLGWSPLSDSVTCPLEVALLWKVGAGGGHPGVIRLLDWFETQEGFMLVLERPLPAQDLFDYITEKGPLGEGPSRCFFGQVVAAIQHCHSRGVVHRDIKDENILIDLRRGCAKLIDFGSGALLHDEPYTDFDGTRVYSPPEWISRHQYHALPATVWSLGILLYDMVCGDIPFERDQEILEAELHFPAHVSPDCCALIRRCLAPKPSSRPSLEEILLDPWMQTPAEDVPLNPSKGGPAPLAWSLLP

Molecule `C=C1[C@@H](O)C[C@@H](c2ccncc2NC(=O)c2nc(-c3ccccc3)cnc2N)OC12CC2` [Example 5, 3-amino-N-(4-((5S,7S)-7-hydroxy-8-methylene-4-oxaspiro[2.5]octan-5-yl)pyridin-3-yl)-6-phenylpyrazine-2-carboxamide] displayed a half-maximal effective concentration (EC50) in assay [1] (KMS11-Luc cells) of 0.09 µM.
Regarding `C[C@H]1O[C@@H](c2ccncc2NC(=O)c2nc(-c3ccccc3)ncc2N)C[C@@H](O)[C@]1(C)O` [Example 32, 5-amino-N-(4-((2R,4R,5S,6R)-4,5-dihydroxy-5,6-dimethyltetrahydro-2H-pyran-2-yl)pyridin-3-yl)-2-phenylpyrimidine-4-carboxamide], the EC50 in assay [1] (KMS11-Luc cells) came out at 1.12 µM.
As to `Nc1ncc(-c2ccccc2)nc1C(=O)Nc1cnccc1[C@H]1C[C@@H](O)[C@H](O)[C@@H](CCl)O1` [Example 36, 3-amino-N-(4-((2R,4R,5S,6S)-6-(chloromethyl)-4,5-dihydroxytetrahydro-2H-pyran-2-yl)pyridin-3-yl)-6-phenylpyrazine-2-carboxamide], the EC50 in assay [1] (KMS11-Luc cells) came out at 0.2 µM.
Regarding `CC[C@H]1O[C@@H](c2ccncc2NC(=O)c2nc(-c3ccccc3)ncc2N)C[C@@H](O)[C@@H]1O` [Example 39, 5-amino-N-(4-((2R,4R,5S,6R)-6-ethyl-4,5-dihydroxytetrahydro-2H-pyran-2-yl)pyridin-3-yl)-2-phenylpyrimidine-4-carboxamide], in assay [1] (KMS11-Luc cells), the EC50 is above 10 µM.
`C[C@H]1O[C@@H](c2ccncc2NC(=O)c2nc(-c3ccccc3)cnc2N)[C@H](F)[C@@H](O)[C@]1(C)O` [Example 58, 3-amino-N-(4-((2S,3R,4S,5S,6R)-3-fluoro-4,5-dihydroxy-5,6-dimethyltetrahydro-2H-pyran-2-yl)pyridin-3-yl)-6-phenylpyrazine-2-carboxamide]: in assay [1] (KMS11-Luc cells), the midpoint of the response, the EC50, lay at 1 µM.
In turn, `C[C@@H]1O[C@H](c2ccncc2NC(=O)c2nc(-c3ccccc3)cnc2N)[C@@H](F)[C@H](O)[C@@]1(C)O` [Example 63, 3-amino-N-(4-((2R,3S,4R,5R,6S)-3-fluoro-4,5-dihydroxy-5,6-dimethyltetrahydro-2H-pyran-2-yl)pyridin-3-yl)-6-phenylpyrazine-2-carboxamide] had an EC50 in assay [1] (KMS11-Luc cells) of 1.3 µM.
In turn, `C[C@H]1O[C@@H](c2ccncc2NC(=O)c2nc(-c3ccccc3)cnc2N)C[C@@H](O)[C@]1(C)O` [Example 84, 3-amino-N-(4-((2R,4R,5S,6R)-4,5-dihydroxy-5,6-dimethyltetrahydro-2H-pyran-2-yl)pyridin-3-yl)-6-phenylpyrazine-2-carboxamide] came in with an EC50 in assay [1] (KMS11-Luc cells) of 0.9 µM.
With `C[C@@H]1O[C@H](c2ccncc2NC(=O)c2nc(-c3ccccc3)cnc2N)C[C@H](O)[C@@]1(C)O` [Example 86, 3-amino-N-(4-((2S,4S,5R,6S)-4,5-dihydroxy-5,6-dimethyltetrahydro-2H-pyran-2-yl)pyridin-3-yl)-6-phenylpyrazine-2-carboxamide], in assay [1] (KMS11-Luc cells), it took 2.8 µM to reach a half-maximal effect (EC50).
As to `CC[C@]1(O)[C@H](O)C[C@H](c2ccncc2NC(=O)c2nc(-c3c(F)cccc3F)ncc2N)O[C@@H]1C` [Example 143, 5-amino-2-(2,6-difluorophenyl)-N-(4-((2R,4R,5S,6R)-5-ethyl-4,5-dihydroxy-6-methyltetrahydro-2H-pyran-2-yl)pyridin-3-yl)pyrimidine-4-carboxamide], it took 1.94 µM to reach a half-maximal effect in assay [1] (KMS11-Luc cells) (EC50). Moreover, the IC50 on FLT3D835Y kinase was above 10 µM.
Take `Nc1ncc(-c2ccccc2)nc1C(=O)Nc1cnccc1[C@H]1C[C@@H](O)[C@@]2(O)CCCC[C@H]2O1` [Example 173, 3-amino-N-(4-((2R,4R,4aS,8aR)-4,4a-dihydroxyoctahydro-2H-chromen-2-yl)pyridin-3-yl)-6-phenylpyrazine-2-carboxamide]: the IC50 at FLT3D835Y kinase was found to be 0.0074 µM.
In assay [1] (KMS11-Luc cells), `Nc1ncc(-c2ccccc2)nc1C(=O)Nc1cnccc1[C@@H]1C[C@H](O)[C@]2(O)CCCC[C@@H]2O1` [Example 176, 3-amino-N-(4-((2S,4S,4aR,8aS)-4,4a-dihydroxyoctahydro-2H-chromen-2-yl)pyridin-3-yl)-6-phenylpyrazine-2-carboxamide] showed an EC50 of 3.6 µM. For the same molecule, the IC50 on FLT3D835Y kinase is 1.1 µM.
Take `O=C(Nc1cnccc1[C@H]1C[C@@H](O)[C@@]2(O)CCCC[C@H]2O1)c1c[nH]cc(-c2ccccc2)c1=O` [Example 178, N-(4-((2R,4R,4aS,8aR)-4,4a-dihydroxyoctahydro-2H-chromen-2-yl)pyridin-3-yl)-4-oxo-5-phenyl-1,4-dihydropyridine-3-carboxamide]: the EC50 in assay [1] (KMS11-Luc cells) is above 10 µM. For the same molecule, the half-maximal inhibitory concentration (IC50) on FLT3D835Y kinase is above 10 µM.
Turning to `Nc1ncc(-c2ccccc2)nc1C(=O)Nc1cnccc1[C@@H]1C[C@H](O)[C@]2(O)CCC[C@@H]2O1` [Example 186, 3-amino-N-(4-((2S,4S,4aR,7aS)-4,4a-dihydroxyoctahydrocyclopenta[b]pyran-2-yl)pyridin-3-yl)-6-phenylpyrazine-2-carboxamide], the EC50 in assay [1] (KMS11-Luc cells) was 6.91 µM. Further, the IC50 on FLT3D835Y kinase came out at 1.6 µM.
The molecule `Nc1ncc(-c2ccccc2)nc1C(=O)Nc1cnccc1[C@H]1C[C@@H](O)[C@@]2(O)CCC[C@H]2O1` [Example 195, 3-amino-N-(4-((2R,4R,4aS,7aR)-4,4a-dihydroxyoctahydrocyclopenta[b]pyran-2-yl)pyridin-3-yl)-6-phenylpyrazine-2-carboxamide] gave an EC50 in assay [1] (KMS11-Luc cells) of 0.11 µM. For the same molecule, the IC50 at FLT3D835Y kinase was 0.0035 µM.
The corresponding values for `O=C1CC[C@H]2O[C@@H](c3ccncc3NC(=O)c3ccc(F)c(-c4c(F)cccc4F)n3)C[C@@H](O)[C@@H]2N1` [Example 196, 6-(2,6-difluorophenyl)-5-fluoro-N-(4-((2R,4R,4aS,8aR)-4-hydroxy-6-oxooctahydro-2H-pyrano[3,2-b]pyridin-2-yl)pyridin-3-yl)picolinamide] are 8.1 µM and above 10 µM.
In the case of `CC[C@]1(O)[C@H](N)C[C@H](c2ccncc2NC(=O)c2ccc(F)c(-c3c(F)cccc3F)n2)O[C@@H]1C` [Example 232, N-(4-((2R,4R,5S,6R)-4-amino-5-ethyl-5-hydroxy-6-methyltetrahydro-2H-pyran-2-yl)pyridin-3-yl)-6-(2,6-difluorophenyl)-5-fluoropicolinamide], the IC50 on FLT3D835Y kinase was found to be 0.83 µM.
On the same count and under the same terms, next, `Nc1ncc(-c2ccccc2)nc1C(=O)Nc1cnccc1[C@@H]1C[C@H](N)[C@]2(O)CCCC[C@@H]2O1` [Example 243, 3-amino-N-(4-((2S,4S,4aR,8aS)-4-amino-4a-hydroxyoctahydro-2H-chromen-2-yl)pyridin-3-yl)-6-phenylpyrazine-2-carboxamide]: 4.1 µM.
`CC(C)(C)[C@H]1O[C@@H](c2ccncc2NC(=O)c2nc(-c3ccccc3)cnc2N)C[C@H](N)[C@@H]1O` [Example 286, 3-amino-N-(4-((2R,4S,5S,6R)-4-amino-6-tert-butyl-5-hydroxytetrahydro-2H-pyran-2-yl)pyridin-3-yl)-6-phenylpyrazine-2-carboxamide]: the EC50 in assay [1] (KMS11 cells, cell proliferation, read-out: KMS11-Luc EC50) was found to be 1.97 µM. Besides, the IC50 on PIM2 is 0.0649 µM.

Source of the values: patent US20130109682A1, “CYCLIC ETHER COMPOUNDS USEFUL AS KINASE INHIBITORS” (NOVARTIS AG, priority 2010, published 2013).
